Data published in patent US5484725A, “Norbornane type ester hydrolase from Acetobacter pasteurianus” (Shionogi & Co., Ltd., priority 1993, dated 1996).

Assays:
[1] = test system: E. coli JM103 including the plasmid pUNA-Hf; test: Optically selective deacetylation of exo-norbornyl acetate by E. coli JM103/pUNA-Hf cell suspension; format: cell-based; conditions: 1% substrate, 30° C., 15 minutes
Description: (±)-Exo-norbornyl acetate used as a substrate was optically selectively deacetylated by E. coli JM103 including the plasmid pUNA-Hf as follows. The bacterial cells were collected from the cultured broth of E. coli JM103/pUNA-Hf as mentioned above by centrifugation, and suspended in an equal volume of a 0.1M phosphate buffer (pH 7.0). Then, 1% (±)-exo-norbornyl acetate was added to 1.5 ml of the obtained suspension, and the reaction was conducted at 30° C. for 15 minutes. The resultant reaction mixture was analyzed by the method described in item 5 of Example 2.

[2] = test system: E. coli JM109 transformed by using the plasmid pUNA-Hf; test: Hydrolysis of (±)-exo-norbornyl acetate by transformant E. coli JM109 with pUNA-Hf; format: cell-based; conditions: 1% substrate, 30° C., 10 minutes
Description: E. coli JM109 was transformed by using the plasmid pUNA-Hf. […] Then, the transformant was mixed with a 1% (±)-exo-norbornyl acetate mixture and allowed to stand at 30° C. for 10 minutes. The resulting mixture was analyzed by the method described in item 5 of Example 2. […] Thus, the optical selectivity was confirmed to be as high as that of the enzyme derived from Acetobacter pasteurianus obtained in Example 1.

[3] = test system: norbornane type ester hydrolase; test: Optically selective hydrolysis of (±)-exo-norbornane type esters by purified enzyme, optical resolution GC; format: biochemical, Acetobacter pasteurianus ATCC 12873; conditions: 1% ester, 30° C., 30 minutes
Description: Various kinds of the (±)-exo-norbornane type esters respectively comprising formyl, acetyl, propionyl, n-butyryl or isobutyryl as the acyl R in formula I were allowed to come in contact with an enzyme solution, respectively as a substrate. Each of the obtained products was extracted with an equal volume of chloroform. The extract was analyzed by gas chromatography using a column for optical resolution (produced by J & W Scientific). (-)-Norborneol was selectively produced in all the extracts. […] In detail, referring to FIG. 1, (+)-(1S, 2S, 4R)-exo-norbornyl acetate is hydrolysed to the corresponding (-)-norborneol by the use of the present enzyme. The obtained (-)-norborneol can be converted to (+)-d-norcamphor by oxidation. The remaining (-)-(1R, 2R, 4S)-exo-norbornyl acetate can be hydrolysed to the corresponding (+)-norborneol by the use of an alkali. The obtained (+)-norborneol can be converted to (-)-d-norcamphor by oxidation.
The purified enzyme obtained in Example 1 was allowed to come in contact with various kinds of 1% (±)-exo-norbornane type esters respectively including formyl, acetyl, propionyl, n-butyryl and isobutyryl as the acyl R in formula I. The reaction was conducted at 30° C. for 30 minutes. The resultant was extracted with an equal volume of chloroform. The extract was analyzed by gas chromatography using a column for optical resolution (produced by J & W Scientific). As is apparent from the results shown in Table 2, (-)-norborneol was enantio-selectively produced from any of the esters.

[4] = test system: norbornane type ester hydrolase; test: Effect of inhibitors on the enzyme (pNPA method); format: biochemical, Acetobacter pasteurianus ATCC 12873; conditions: 5 mM inhibitor, phosphate buffer pH 7.0, 30° C., 2 hours, then pNPA method
Description: The present enzyme was allowed to stand in phosphate buffers respectively including various inhibitors (5 mM) at pH 7.0 for 2 hours. Then, the activity of the enzyme was measured by the method described in item 3.
The above-mentioned activity measurement was performed with regard to 0.5 ml of the enzyme solution of 0.1M phosphate buffer (pH 7.0) containing 5 mM of one of the following inhibitors: ethylenediaminetetraacetic acid (EDTA), phenylmethylsulfonylfluoride (PMSF), N-tosyl-L-phenylalanyl chloromethyl ketone (TPCK), N-tosyl-L-lysyl chloromethyl ketone (TLCK), diisopropyl fluorophosphate (DFP), N-ethylmaleimide and iodoacetic acid. The enzyme solutions, including the respective inhibitors, were allowed to stand at 30° C. for 2 hours.

Produced norborneol (+)-isomer [3] [mg/mL] | Produced norborneol (-)-isomer [3] [mg/mL] | SMILES | (+)-exo-norborneol produced [1] [mg/mL] | (-)-exo-norborneol produced [1] [mg/mL] | (+)-exo-norborneol produced [2] [mg/mL] | (-)-exo-norborneol produced [2] [mg/mL] | inhibition of the enzyme by inhibitor [4]
0.15 | 1.49 | O=CO[C@H]1C[C@@H]2CC[C@H]1C2 (relative stereo) [Formyl] | – | – | – | – | –
0.45 | 3.39 | CCC(=O)O[C@H]1C[C@@H]2CC[C@H]1C2 (relative stereo) [Propionyl] | – | – | – | – | –
0.69 | 2.76 | CC(C)C(=O)O[C@H]1C[C@@H]2CC[C@H]1C2 (relative stereo) [isobutyryl] | – | – | – | – | –
0.29 | 2.30 | CCCC(=O)O[C@H]1C[C@@H]2CC[C@H]1C2 (relative stereo) [n-butyryl] | – | – | – | – | –
– | – | O=S(=O)(F)Cc1ccccc1 [PMSF, phenylmethylsulfonylfluoride] | – | – | – | – | completely inhibited

SMILES | Produced norborneol (+)-isomer [3] [mg/mL] | Produced norborneol (-)-isomer [3] [mg/mL] | (+)-exo-norborneol produced [1] [mg/mL] | (-)-exo-norborneol produced [1] [mg/mL] | (+)-exo-norborneol produced [2] [mg/mL] | (-)-exo-norborneol produced [2] [mg/mL] | inhibition of the enzyme by inhibitor [4]
CC(=O)O[C@H]1C[C@@H]2CC[C@H]1C2 (relative stereo) [Acetyl, (±)-exo-norbornyl acetate] | 0.19 | 2.48 | 0.15 | 1.91 | 0.15 | 1.68 | –
